Results: patent publication US9850247B2 (Almac Discovery Limited, priority 2013, dated 2017)

What was measured:
[1] = molecular target: T1, Wee-1 kinase (Homo sapiens, UniProt P30291); assay: Measurement of Wee-1 kinase activity (ADP-Glo luminescent kit); format: biochemical
T1 construct: purchased Invitrogen PV3817
Experimental: Method 1: Measurement of Wee-1 Kinase Activity
In the measurement of Wee-1 activity, a commercial peptide Poly(Lys Tyr (4:1)) hydrobromide was purchased from Sigma Aldrich and used as the substrate. Activated Wee-1 kinase was purchased from Invitrogen (PV3817) and an ADP-Glo luminescent kit was purchased from Promega.
All reactions took place in […] volumes in reaction buffer containing 40 mM Tris-HCl and 20 mM magnesium chloride, supplemented with 0.1 mg/mL bovine serum albumin and 2 mM DTT. Compounds were serially diluted in buffer and 5 μL of each concentration pipetted into a white 384 well plate (Sigma Aldrich M6186). A 5 μL aliquot of the Wee-1 enzyme was added to each well and the plate centrifuged for 1 min to ensure mixing of the enzyme and inhibitor.
The plate was incubated at room temperature for 30 minutes before the addition of 2.0 μg/mL of substrate and 30 μM ATP in a 5 μL aliquot. The plate was centrifuged for one minute and incubated for 1 h at RT.
15 µL of ADP-Glo stop reagent was added to each well to quench the reaction and deplete unconverted ATP. The plate was incubated for a further 40 min in the dark at RT.
30 μL of ADP-Glo kinase detection reagent was added to each well, converting ADP to ATP, catalysing the generation of luciferin by luciferase. The plate was shaken for 1 min, and incubated in the dark for an additional hour.
Luminescence from each well was detected using the Biotek Synergy4 HD plate reader and the percentage inhibition of kinase activity calculated for each inhibitor tested. Positive (kinase only) and negative (no kinase) controls were added to each plate to ensure specific interaction of kinase and inhibitor. The IC50 concentration for each inhibitor was calculated by plotting the percentage kinase inhibition against concentration of inhibitor and the curve generated by non-linear regression fitting.

[2] = CLint estimates using human liver microsomes (Method 4); format: in vitro ADME; conditions: pH 7.4, 1 μM compound, read-out: Mics - CLint (HLM CLint)
Experimental: Method 4: Determination of CLint Estimates Using Human liver microsomes Test compounds (final concentration=1 μM; final DMSO concentration=0.1%) were incubated in 0.1 M phosphate buffer pH 7.4 with human liver microsomes (0.5 mg of protein/mL) at 37° C. Reactions were started by addition of NADPH in 0.1 M phosphate buffer pH 7.4 (final concentration 1 mM). 40 μL aliquots were removed at 2, 5, 10, 15, 20, 30, 40 and 50 min. Reactions were quenched in 80 μL of ice-cold methanol. Samples were subsequently frozen overnight then centrifuged at 3500 rpm for 20 min at 4° C. The supernatants were removed and transferred into analytical plates and analysed by LC/MS/MS. LC/MS/MS Method: All samples were analysed on a Waters Acquity I-Class coupled to a Waters Xevo TQD mass spectrometer. A Waters BEH C18 2.1×50 mm 1.7 μm column was used and mobile phases were water and methanol containing 0.1% formic acid as modifier. Analysis was by multiple reaction monitoring and conditions were optimised for each test compound. Data Analyses: From a plot of 1n peak area against time, the gradient of the line is determined. Subsequently, half-life and intrinsic clearance are calculated using the following equations. [formula] [formula] [formula] where V=Incubation volume (μL)/number of cells Method 5: Determination of Kinetic Solubility (in PBS Buffer)

T1 sequence (P30291 whole entry): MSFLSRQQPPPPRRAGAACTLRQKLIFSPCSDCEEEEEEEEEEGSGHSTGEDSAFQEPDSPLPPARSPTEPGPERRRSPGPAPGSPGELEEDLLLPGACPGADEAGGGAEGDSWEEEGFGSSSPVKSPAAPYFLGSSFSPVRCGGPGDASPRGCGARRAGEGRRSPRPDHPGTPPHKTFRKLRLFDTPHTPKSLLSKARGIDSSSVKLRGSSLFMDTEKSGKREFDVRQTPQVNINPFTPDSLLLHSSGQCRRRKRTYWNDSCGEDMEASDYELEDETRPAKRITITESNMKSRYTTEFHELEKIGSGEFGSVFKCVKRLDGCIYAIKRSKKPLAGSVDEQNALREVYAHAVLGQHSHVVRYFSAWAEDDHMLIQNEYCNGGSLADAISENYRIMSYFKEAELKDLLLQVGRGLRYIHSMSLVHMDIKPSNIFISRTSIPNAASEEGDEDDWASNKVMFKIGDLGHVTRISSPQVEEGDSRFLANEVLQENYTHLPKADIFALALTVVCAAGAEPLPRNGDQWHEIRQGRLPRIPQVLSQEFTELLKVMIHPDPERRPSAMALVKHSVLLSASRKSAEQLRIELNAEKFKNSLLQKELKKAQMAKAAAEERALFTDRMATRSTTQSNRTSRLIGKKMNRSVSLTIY

Row | SMILES | IC50 [1] [nM] | microsomal CLint at 1 μM [2] [µL/min/mg]
1 | CC(=O)NCc1cc(Nc2ncc3c(n2)N(C)CN(c2c(Cl)cccc2Cl)C3=O)ccc1N1CCNCC1 [Example 145, N-(5-((6-(2,6-dichlorophenyl)-8-methyl-5-oxo-5,6,7,8-tetrahydropyrimido[4,5-d]pyrimidin-2-yl)amino)-2-(piperazin-1-yl)benzyl)acetamide] | 10 to 100 | ≤ 15
2 | CNCc1cc(Nc2ncc3c(n2)N(C)CN(c2c(Cl)cccc2Cl)C3=O)ccc1F [Example 152, 3-(2,6-dichlorophenyl)-7-((4-fluoro-3-((methylamino)methyl)phenyl)amino)-1-methyl-2,3-dihydropyrimido[4,5-d]pyrimidin-4(1H)-one] | ≥ 100 | ≤ 15
3 | Cc1cc(Nc2ncc3c(n2)N(C)CN(c2ccccc2Cl)C3=O)ccc1N1C[C@@H]2C[C@H]1CN2 [Example 109, 7-((4-((1S,4S)-2,5-diazabicyclo[2.2.1]heptan-2-yl)-3-methylphenyl)amino)-3-(2-chlorophenyl)-1-methyl-2,3-dihydropyrimido[4,5-d]pyrimidin-4(1H)-one] | 10 to 100 | ≤ 15
4 | C[C@@H]1CN(c2ccc(Nc3ncc4c(n3)N(C)CN(c3c(Cl)cccc3Cl)C4=O)cc2OC(F)F)CCN1 [Example 132, (R)-3-(2,6-dichlorophenyl)-7-((3-(difluoromethoxy)-4-(3-methylpiperazin-1-yl)phenyl)amino)-1-methyl-2,3-dihydropyrimido[4,5-d]pyrimidin-4(1H)-one] | 10 to 100 | ≤ 15
5 | CN1CN(c2c(Cl)cccc2Cl)C(=O)c2cnc(Nc3ccc(N4CCOCC4)cc3)nc21 [Example 41, 3-(2,6-dichlorophenyl)-1-methyl-7-((4-morpholinophenyl)amino)-2,3-dihydropyrimido[4,5-d]pyrimidin-4(1H)-one] | 10 to 100 | 15 to 50
6 | CN1CC2CN(c3ccc(Nc4ncc5c(n4)N(C)CN(c4c(Cl)cccc4Cl)C5=O)cc3)CC2C1 (centres unmarked) [Example 35, 3-(2,6-dichlorophenyl)-1-methyl-7-((4-(5-methylhexahydropyrrolo[3,4-c]pyrrol-2(1H)-yl)phenyl)amino)-2,3-dihydropyrimido[4,5-d]pyrimidin-4(1H)-one] | 10 to 100 | 15 to 50
7 | CN1CN(c2ccccc2Cl)C(=O)c2cnc(Nc3ccc(N4CCNC(C)(C)C4)cc3)nc21 [Example 106, 3-(2-chlorophenyl)-7-((4-(3,3-dimethylpiperazin-1-yl)phenyl)amino)-1-methyl-2,3-dihydropyrimido[4,5-d]pyrimidin-4(1H)-one] | 10 to 100 | ≤ 15
8 | CNCc1cc(Nc2ncc3c(n2)N(C)CN(c2c(Cl)cccc2Cl)C3=O)ccc1-c1ccncc1 [Example 155, 3-(2,6-dichlorophenyl)-1-methyl-7-((3-((methylamino)methyl)-4-(pyridin-4-yl)phenyl)amino)-2,3-dihydropyrimido[4,5-d]pyrimidin-4(1H)-one] | 10 to 100 | ≤ 15
9 | CC(=O)N1CCN(c2ccc(Nc3ncc4c(n3)N(C)CN(c3c(Cl)cccc3Cl)C4=O)cc2CN2CCCC2)CC1 [Example 138, 7-((4-(4-acetylpiperazin-1-yl)-3-(pyrrolidin-1-ylmethyl)phenyl)amino)-3-(2,6-dichlorophenyl)-1-methyl-2,3-dihydropyrimido[4,5-d]pyrimidin-4(1H)-one] | ≤ 10 | ≤ 15
10 | COc1cc(Nc2ncc3c(n2)N(C)CN(c2c(Cl)cccc2Cl)C3=O)ccc1N1C[C@@H]2C[C@H]1CN2C [Example 84, 3-(2,6-dichlorophenyl)-7-((3-methoxy-4-((1S,4S)-5-methyl-2,5-diazabicyclo[2.2.1]heptan-2-yl)phenyl)amino)-1-methyl-2,3-dihydropyrimido[4,5-d]pyrimidin-4(1H)-one] | 10 to 100 | 15 to 50
11 | COCc1cc(Nc2ncc3c(n2)N(C)CN(c2c(Cl)cccc2Cl)C3=O)ccc1N1CCN(C)[C@H](C)C1 [Example 67, (R)-3-(2,6-dichlorophenyl)-7-((4-(3,4-dimethylpiperazin-1-yl)-3-(methoxymethyl)phenyl)amino)-1-methyl-2,3-dihydropyrimido[4,5-d]pyrimidin-4(1H)-one] | 10 to 100 | ≤ 15
12 | CN1CN(c2c(Cl)cccc2Cl)C(=O)c2cnc(Nc3ccc(N4CCN(CCO)CC4)cc3)nc21 [Example 116, 3-(2,6-dichlorophenyl)-7-((4-(4-(2-hydroxyethyl)piperazin-1-yl)phenyl)amino)-1-methyl-2,3-dihydropyrimido[4,5-d]pyrimidin-4(1H)-one] | 10 to 100 | 15 to 50
13 | CN1CN(c2c(Cl)cccc2Cl)C(=O)c2cnc(Nc3ccc(C4CCNCC4)cc3)nc21 [Example 119, 3-(2,6-dichlorophenyl)-1-methyl-7-((4-(piperidin-4-yl)phenyl)amino)-2,3-dihydropyrimido[4,5-d]pyrimidin-4(1H)-one] | 10 to 100 | ≤ 15
14 | Cc1cc(Nc2ncc3c(n2)N(C)CN(c2c(C)cccc2Cl)C3=O)ccc1N1C[C@@H]2C[C@H]1CN2 [Example 112, 7-((4-((1S,4S)-2,5-diazabicyclo[2.2.1]heptan-2-yl)-3-methylphenyl)amino)-3-(2-chloro-6-methylphenyl)-1-methyl-2,3-dihydropyrimido[4,5-d]pyrimidin-4(1H)-one] | 10 to 100 | ≤ 15
15 | C[C@@H]1CN(c2ccc(Nc3ncc4c(n3)N(C)CN(c3c(Cl)cccc3Cl)C4=O)cc2)[C@H](C)CN1 [Example 79, 3-(2,6-dichlorophenyl)-7-((4-((2R,5R)-2,5-dimethylpiperazin-1-yl)phenyl)amino)-1-methyl-2,3-dihydropyrimido[4,5-d]pyrimidin-4(1H)-one] | 10 to 100 | 15 to 50
16 | C[C@@H]1CN(c2ccc(Nc3ncc4c(n3)N(C)CN(c3c(Cl)cccc3Cl)C4=O)cc2)CCN1C [Example 32, (R)-3-(2,6-dichlorophenyl)-7-((4-(3,4-dimethylpiperazin-1-yl)phenyl)amino)-1-methyl-2,3-dihydropyrimido[4,5-d]pyrimidin-4(1H)-one] | 10 to 100 | 15 to 50
17 | CCN1CCN(c2ccc(Nc3ncc4c(n3)N(C)CN(c3ccccc3Cl)C4=O)cc2CO)CC1 [Example 113, 3-(2-chlorophenyl)-7-((4-(4-ethylpiperazin-1-yl)-3-(hydroxymethyl)phenyl)amino)-1-methyl-2,3-dihydropyrimido[4,5-d]pyrimidin-4(1H)-one] | 10 to 100 | 15 to 50
18 | Cc1cc(Nc2ncc3c(n2)N(C)CN(c2c(Cl)cccc2Cl)C3=O)ccc1N1C[C@H]2C[C@@H]1CN2 [Example 118, 7-((4-((1R,4R)-2,5-diazabicyclo[2.2.1]heptan-2-yl)-3-methylphenyl)amino)-3-(2,6-dichlorophenyl)-1-methyl-2,3-dihydropyrimido[4,5-d]pyrimidin-4(1H)-one] | 10 to 100 | ≤ 15
19 | CN1CN(c2c(Cl)cccc2Cl)C(=O)c2cnc(Nc3ccc(N4C[C@@H]5C[C@H]4CN5C)cc3)nc21 [Example 44, 3-(2,6-dichlorophenyl)-1-methyl-7-((4-((1S,4S)-5-methyl-2,5-diazabicyclo[2.2.1]heptan-2-yl)phenyl)amino)-2,3-dihydropyrimido[4,5-d]pyrimidin-4(1H)-one] | 10 to 100 | ≤ 15
